Read-outs that look alike come from different tables or passages of the source.
Experiments:
[1] = system: Squamous cell lung cancer cell line NCI-H520; conditions: for Fractional tumor volume (FTV), agent alone / Tumor growth inhibition (%) / Mean Tumor volume mm^3(±SD): day 49; for Tumor growth inhibition (%): alone or with FGFR1-ECD.339-Fc 15 mg/kg; for Mean Tumor volume mm^3(±SD): alone or with FGFR1-ECD.339-Fc 15 mg/kg i.p. 2x/wk
[2] = system: A549 cells; assay: A549 non-small cell lung cancer (NSCLC) xenograft model: tumor volume and body weight; conditions: for Fractional tumor volume (FTV), agent alone: day 32
[3] = system: Human non-small cell lung cancer (NSCLC) cell line H1703; assay: H1703 non-small cell lung cancer (NSCLC) xenograft model: tumor volume and body weight; assay type: in vivo, SCID mice; conditions: day 38
Experimental: Human non-small cell lung cancer (NSCLC) cell line H1703 was used as the tumor model and was purchased from ATCC (Manassas, VA; Cat. No. CRL-5889).
Docetaxel was purchased from Toronto Research Chemicals (North York, Ontario, Canada; cat. No. D494420) and formulated in H2O containing 5% Tween 80 and 5% glucose. Docetaxel was administered i.p. at 25 mg/kg (equivalent to about 75 mg/m^2 in a human) once every three weeks for two doses. In combination groups, FGFR1-ECD.339-Fc and docetaxel were either given concurrently or sequentially with FGFR1-ECD.339-Fc given one day before docetaxel or vice versa. Human albumin was purchased from Grifols USA (Los Angeles, CA; Cat. No. NDC 61953-0002-1), formulated in PBS at 3 mg/mL and was used as negative control at 300 µg/100 µL/mouse (15 mg/kg). Table 2: Dosing Schedule
The tumor volume was measured by external caliper to determine the greatest longitudinal diameter (length) and the greatest transverse diameter (width). The tumor volume was then calculated using the following formula: Tumorvolume(mm^3) = (length × width^2)/2 [formula]
Table 3. Tumor volume analysis on day 38
Table 4. Analysis of fractional tumor volumea on day 38

[4] = pemetrexed 62.5 mg/kg i.p. QD x 5 x 2 cycles
[5] = pemetrexed 125 mg/kg i.p. QD x 5 x 2 cycles
[6] = pemetrexed 250 mg/kg i.p. (only first five doses given)
[7] = FGFR1-ECD.339-Fc 15 mg/kg i.p. twice a week, docetaxel 25 mg/kg i.p. once every three weeks for two doses

Question: Nc1nc2[nH]cc(CCc3ccc(C(=O)N[C@@H](CCC(=O)O)C(=O)O)cc3)c2c(=O)[nH]1 [Pemetrexed, (S)-2-[4-[2-(4-amino-2-oxo-3,5,7-triazabicyclo[4.3.0]nona-3,8,10-trien-9-yl)ethyl]benzoyl] aminopentanedioic acid] was tested. Which “Fractional tumor volume (FTV), agent alone” value (shortened to “Fractional tumor volume (FTV)”) ([1]; pemetrexed 62.5 mg/kg alone) did it give?
Answer: Its value is 0.59.

Question: And the “Tumor growth inhibition (%)” value [1, 4]?
Answer: Its value is 40%.

Question: And the “Mean Tumor volume mm^3(±SD)” value [1, 4]?
Answer: Its value is 544.7 (±341.5) mm^3.

Question: What about the “Fractional tumor volume (FTV)” value ([1]; pemetrexed 125 mg/kg alone) of the same compound?
Answer: The value was 0.75.

Question: What about the “Tumor growth inhibition (%)” value [1, 5] of the same compound?
Answer: The value was 24%.

Question: What about the “Mean Tumor volume mm^3(±SD)” value [1, 5] of the same compound?
Answer: The value was 689.5 (±328.7) mm^3.

Question: What about the “Fractional tumor volume (FTV)” value ([1]; pemetrexed 250 mg/kg alone) of the same compound?
Answer: The value was 1.00.

Question: What about the “Tumor growth inhibition (%)” value [1, 6] of the same compound?
Answer: The value was 1%.

Question: And the “Mean Tumor volume mm^3(±SD)” value [1, 6]?
Answer: The value was 926.6 (±339.9) mm^3.

Question: What about the “tumor inhibition over the course of the study” value ([1]; highest dose of pemetrexed (250 mg/kg), alone or with FGFR1-ECD.339-Fc) of the same compound?
Answer: Its value is “did not appear to inhibit tumor growth”.

Question: CC[C@]1(O)C[C@H]2CN(CCc3c([nH]c4ccccc34)[C@@](C(=O)OC)(c3cc4c(cc3OC)N(C=O)[C@H]3[C@@](O)(C(=O)OC)[C@H](OC(C)=O)[C@]5(CC)C=CCN6CC[C@]43[C@@H]65)C2)C1 [Vincristine, methyl (1R,9R,10S,11R,12R,19R)-11-(acetyloxy)-12-ethyl-4-[(13S,15S,17S)-17-ethyl-17-hydroxy-13-(methoxycarbonyl)-1,11-diazatetracyclo[13.3.1.0^4,12.0^5,10]nonadeca-4(12),5,7,9-tetraen-13-yl]-8-formyl-10-hydroxy-5-methoxy-8,16-diazapentacyclo[10.6.1.0^1,9.0^2,7.0^16,19]nonadeca-2,4,6,13-tetraene-10-carboxylate] was tested. Which weight loss ([2]; higher dose of vincristine (1.5 mg/kg), Figure 9C) did it give?
Answer: The weight loss was “lost weight”.

Question: And the weight loss ([2]; lower dose of vincristine (1 mg/kg), data not shown)?
Answer: Its weight loss is “did not lose weight”.

Question: How did the “Fractional tumor volume (FTV)” value ([2]; docetaxel 3 mg/kg i.p. twice per week alone) turn out when CC(=O)O[C@@]12CO[C@@H]1C[C@H](O)[C@@]1(C)C(=O)[C@H](O)C3=C(C)[C@@H](OC(=O)[C@H](O)[C@@H](NC(=O)OC(C)(C)C)c4ccccc4)C[C@@](O)([C@@H](OC(=O)c4ccccc4)[C@H]21)C3(C)C [Docetaxel, 1,7β,10β-trihydroxy-9-oxo-5β,20-epoxytax-11-ene-2α,4,13α-triyl 4-acetate 2-benzoate 13-{(2R,3S)-3-[(tert-butoxycarbonyl)amino]-2-hydroxy-3-phenylpropanoate}] was run?
Answer: The value was 0.79.

Question: And the “Fractional tumor volume (FTV)” value ([2]; docetaxel 10 mg/kg i.p. twice per week alone)?
Answer: The value was 0.58.

Question: What about the “Mean Tumor volume mm^3(±SD)” value [3, 7] of the same compound?
Answer: The value was 209 (±303) mm^3.

Question: And the “Tumor growth inhibition (%)” value [3, 7]?
Answer: Its value is 74%.

Question: What about the “Fractional tumor volume (FTV)” value ([3]; FGFR1-ECD.339-Fc 15 mg/kg, docetaxel 25 mg/kg, FTV = mean TV treated / mean TV control) of the same compound?
Answer: The value was 0.25.
